US11413337B2, “Peptide conjugated particles for the treatment of inflammation” (Northwestern University, priority 2012, dated 2022)
Where no end group is shown, it is not given here.

Key:
[1] = system: spleen, liver and lung; macrophages; assay: detection and cellular localisation of particles after iv administration; conditions: 24 hours after intravenous infusion
Description: Naïve uninjected mouse (top row) as compared to i.v. fluorescent PLGA/PEMA microparticle injected mouse spleen (left column), liver (middle column) and lung (left column) sections at 3-hours post injection (middle row) and 24-hours (bottom row) post-injection, counterstained with DAPI.

[2] = system: Relapsing Experimental Autoimmune Encephalitis (R-EAE); assay: prophylactic tolerance in PLP139-151/CFA-induced R-EAE, particles given day −7; format: in vivo, mouse; conditions: treated day −7 relative to immunization
Th1 and Th17 responses = assay: induction of antigen-specific Th1 and Th17 responses, draining lymph node cells; format: in vivo, mouse; conditions: BALB/c mice, iv Day −7, measured Day 10
Procedure: To determine whether administration of antigen-coupled particles inhibit induction of T-helper cells, either MOG35-55-PLG or OVA323-339-PLG particles were administered intravenously to BALB/c mice at Day −7. On Day 0, OVA323-339-PLG particles and Complete Freund's Adjuvant (CFA) were administered subcutaneously to the mice. The animals were re-stimulated with either MOG35-55-PLG or OVA323-339-PLG particles on Day 10 and the draining lymph node cells were isolated. The CPM and levels of IL-17, GM-CSF, IFN-γ, IL-10, and IL-4 were measured at Day 10.

cervical spinal cord = assay: spinal cord histology and in vivo imaging in R-EAE; parameters: species or system mouse; conditions: spinal cord, day 40
Procedure: An additional therapeutic tolerance strategy was performed by delivering PLP139-151-PLG or OVA323-339 PLG to mice. […] Mice were treated with PLP-PLG or OVA323-339-PLG and the tissue was retrieved at day 40. The cervical spinal cord was isolated and sectioned to investigate the immune response within the CNS, which underlies the pathology of R-EAE and multiple sclerosis.
The clinical scores and percent incidence of EAE were determined (FIG. 10B) and the spinal cords observed via in vivo imaging (FIGS. 10A and 11). […] The bar graphs give the numerical numbers to the signal strength shown in the brain and SC scans.

Q: How did the “cells taking up particles” value [1] turn out when “TAMRA-labeled PLP139-151-coupled particles: particles coupled with TAMRA-labeled PLP139-151 (CHCLGKWLGHPDK; cysteine pairing not given here; also: TAMRA label, position not given here, coupled to particles; UniProt P60202 139-151, looked up, fragment)” was run?
A: marginal zone macrophages predominantly uptake

Q: What does the source list for “OVA323-339-PLG: control peptide OVA323-339 coupled to PLG particles (KISQAVHAAHAEINEAG; also: coupled to PLG particles; UniProt P01012 323-339, looked up, fragment)”?
A: prevention of disease induction [2]: did not prevent disease induction; Th1 and Th17 responses (Th1 and Th17 responses): inhibited the Th1 and Th17 responses; staining for CD45, CD4, and CD11b (cervical spinal cord): positive staining
